The results in this text go back to patent publication US20210284691A1, “CBX8 CHROMDOMAIN INHIBITORS AND THE USES THEREOF” (Purdue Research Foundation, priority 2019, published 2021).

Molecules are shown by their SMILES. Square brackets hold non-standard residues; d marks the D form. Peptide text beside a SMILES is read from it. * marks the point of attachment. Tyr(3-Cl) = N[C@@H](Cc1ccc(O)c(Cl)c1)C(=O)O; Benzoyl(3,5-Cl2) = O=C(c1cc(Cl)cc(Cl)c1)*; Lys(Et2) = CCN(CC)CCCC[C@H](N)C(=O)O; Gly(cPent) = N[C@H](C(=O)O)C1CCCC1; NH(propargyl) = C#CCN*

What all share (format): cell-based
For experiment [1], the system named is KLK3/TMPRSS2/AR/CBX2 expression. Kind of experiment: Transcriptional fold change in LNCaP_NED cells. Conditions: 10 μM or 50 μM, 48 hours. From the text: (§1) FIG. 12A). Neuroendocrine differentiation (NED) of prostate cancer induced by androgen deprivation. Representative pictures of LNCaP cells treated with normal media or charcoal-stripped serum (CSS) media for 6 days to induce neuroendocrine differentiation (LNCaP_NED). FIG. 12B). Transcriptional fold changes of KLK3/TMPRSS2/ENO2/CHGA were quantified normalized to control gene YWHAZ upon CSS media treatment for 6 or 9 days. FIG. 12C). Western blotting of CBX paralogs in LNCaP and LNCaP_NED cells generated from 14-day CSS treatment. FIG. 12D). Cell proliferation of LNCaP_NED following 5 days incubation with 2 or 10 μM SW2_152F. DMSO was used as negative control. FIG. 12E). LNCaP_NED cells were treated with 10 μM SW2_152F for 24 h-96 h. Cell morphology pictures were captured starting from 24 h. Average cell size were plotted at 24 h or 48 h for both DMSO group and compound treated group. FIG. 12F). LNCaP_NED cells were treated with 10 μM or 50 μM SW2_152F for 48 hours. […] Binding of H3K27me3 and CBX2 at specific genomic sites (KLK3/TMPRSS2, e: enhancer, p: promoter) were evaluated using chromatin immunoprecipitation-qPCR. For all experiments in the figure, error bars represent SEM n=3 biological replicates, p-values were calculated using two-tailed Student's t-test, *=p<0.05, **=p<0.01, ***=p<0.001, ****=p<0.0001. […]

In experiment [2] the target is T1, CBX8 bulk chromatin binding (Homo sapiens, UniProt Q9HC52).
T1 construct: endogenous in cells; host or cells: HEK293T (A19)
T1 sequence (Q9HC52 whole entry): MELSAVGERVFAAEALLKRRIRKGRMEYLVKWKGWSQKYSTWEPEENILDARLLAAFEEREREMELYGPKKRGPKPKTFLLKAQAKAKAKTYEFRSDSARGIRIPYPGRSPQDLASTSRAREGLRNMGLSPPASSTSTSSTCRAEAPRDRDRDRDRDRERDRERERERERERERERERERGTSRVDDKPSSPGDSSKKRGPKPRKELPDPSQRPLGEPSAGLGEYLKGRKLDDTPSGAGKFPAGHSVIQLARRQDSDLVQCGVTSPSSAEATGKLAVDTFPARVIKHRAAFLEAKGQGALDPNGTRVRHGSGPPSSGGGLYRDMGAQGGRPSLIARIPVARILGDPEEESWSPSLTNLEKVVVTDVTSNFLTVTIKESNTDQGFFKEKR
Kind of experiment: Sequential salt extraction (SSE) in HEK293T cells. The note with it: 10 μM.
From the text: Sequential Salt Extraction. […] In this assay, bulk chromatin is sequentially resuspended in increasing concentrations of sodium chloride, and the proteins eluted with each wash are quantified using immunoblotting.
Next day, media was removed and cells were washed with PBS. […] After the 4-hour pretreatment, media was removed and cells were washed again with PBS. Cells were harvested and washed with PBS. (Note: it is critical to balance the cell numbers the same in the peptide treated group and the DMSO treated control group.) Cells were resuspended in 1 mL Buffer A (25 mM HEPES, 25 mM KCl, 5 mM MgCla, 0.1% NP-40, 10% Glycerol, 0.05 M EDTA, pH 7.8, plus protease inhibitor) was added to the cell pellet from centrifuge and rotated at 4° C. for 10 minutes (Porter et al.). Cells were spun down at 6500×g for 5 min at 4° C. […] (Note: it is critical to maintain the consistence for all washing steps with the subsequent NaCl containing mRIPA buffers) Then the sample was centrifuged for 3 min at 6500×g. The supernatant was saved in a separate tube, labeled as “0 mM fraction”—0 mM sequential salt extraction washing supernatant. […] The procedures for OmM was repeated for each salt concentrations in the subsequent washes. All washing supernatants were saved and labeled. […] ImageJ was employed to quantitate the protein bands.

Experiment [3] addresses T2, CBX7 bulk chromatin binding (Homo sapiens, UniProt O95931).
T2 construct: endogenous in cells; host or cells: Hs68 fibroblasts (A17); HEK293T (A20)
Kind of experiment: Sequential salt extraction (SSE) in HEK293T cells. The note with it: 10 μM.

In experiment [4] the target is T3, CBX2 and H3K27me3 at KLK3/TMPRSS2 enhancers and promoters (Homo sapiens, UniProt Q14781).
T3 construct: endogenous in cells
T3 sequence (Q14781 whole entry): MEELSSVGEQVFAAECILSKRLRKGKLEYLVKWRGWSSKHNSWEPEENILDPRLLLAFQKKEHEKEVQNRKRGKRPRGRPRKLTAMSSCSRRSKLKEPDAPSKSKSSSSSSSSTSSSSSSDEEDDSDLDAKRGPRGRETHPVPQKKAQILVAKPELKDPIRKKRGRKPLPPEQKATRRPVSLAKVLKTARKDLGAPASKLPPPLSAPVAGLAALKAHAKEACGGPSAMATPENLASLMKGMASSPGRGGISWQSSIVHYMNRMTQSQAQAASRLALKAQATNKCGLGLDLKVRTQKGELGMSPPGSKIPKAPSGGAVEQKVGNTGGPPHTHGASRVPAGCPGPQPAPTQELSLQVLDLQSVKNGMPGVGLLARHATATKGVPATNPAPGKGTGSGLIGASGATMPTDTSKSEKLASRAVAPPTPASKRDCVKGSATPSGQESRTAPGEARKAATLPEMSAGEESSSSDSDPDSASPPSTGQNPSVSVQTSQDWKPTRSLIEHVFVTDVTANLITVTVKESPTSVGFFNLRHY
The experiment can be described thus: ChIP-qPCR in LNCaP_NED cells. Conditions: 10 μM, 4 hours.
From the text: as §1
In general terms: Real-time PCR tracks product formation cycle by cycle.

In the next experiment the test system is LNCaP_NED cells. The experiment can be described thus: LNCaP_NED cell proliferation, viability and morphology. From the text:
(§2) FIG. 12A). Neuroendocrine differentiation (NED) of prostate cancer induced by androgen deprivation. Representative pictures of LNCaP cells treated with normal media or charcoal-stripped serum (CSS) media for 6 days to induce neuroendocrine differentiation (LNCaP_NED). FIG. 12B). Transcriptional fold changes of KLK3/TMPRSS2/ENO2/CHGA were quantified normalized to control gene YWHAZ upon CSS media treatment for 6 or 9 days. FIG. 12C). Western blotting of CBX paralogs in LNCaP and LNCaP_NED cells generated from 14-day CSS treatment. FIG. 12D). Cell proliferation of LNCaP_NED following 5 days incubation with 2 or 10 μM SW2_152F. DMSO was used as negative control. FIG. 12E). LNCaP_NED cells were treated with 10 μM SW2_152F for 24 h-96 h. Cell morphology pictures were captured starting from 24 h. Average cell size were plotted at 24 h or 48 h for both DMSO group and compound treated group. FIG. 12F). LNCaP_NED cells were treated with 10 μM or 50 μM SW2_152F for 48 hours. Transcriptional fold change of genes (KLK3/TMPRSS2/AR/CBX2) were normalized to YWHAZ in LNCaP_NED cells with SW2_152F treatment or DMSO. FIG. 12G). LNCaP cells were treated with DMSO. LNCaP_NED cells were treated with DMSO, 10 μM GSK343 or 10 μM SW2_152F for 48 hours. Whole cell lysates were extracted for western blotting. FIG. 12H). LNCaP_NED cells were treated with DMSO or 10 μM SW2_152F for 4 hours before harvest. Binding of H3K27me3 and CBX2 at specific genomic sites (KLK3/TMPRSS2, e: enhancer, p: promoter) were evaluated using chromatin immunoprecipitation-qPCR. For all experiments in the figure, error bars represent SEM n=3 biological replicates, p-values were calculated using two-tailed Student's t-test, *=p<0.05, **=p<0.01, ***=p<0.001, ****=p<0.0001.
Cellular Activity of CBX2 Inhibitor in Neuroendocrine Differentiation of Prostate Cancer—Generation of a Prostate Cancer Neuroendocrine Differentiation (NED) System. To generate an in vitro model for NED, we cultured the androgen-sensitive prostate cancer cell line LNCaP in charcoal-stripped serum (CSS), which lacks androgens as well as other steroids. Upon treatment with CSS media, LNCaP cells adopted morphological characteristics of neuroendocrine-like cells (LNCaP_NED), which include dominant nucleus, limited cytoplasm, dendrites (FIG. 12A) and a decreased proliferation rate. To monitor transcriptional changes during androgen deprivation, we quantified the changes in expression of two NED markers (ENO2 and CHGA) and two AR target genes (KLK3 and TMPRSS2) by RT-qPCR during 15 days of androgen deprivation. […] To verify that LNCaP_NED cells become resistant to AR antagonists, we tested the effects of the AR antagonist enzalutamide (ENZA) on cell proliferation.

Experiment [5] deals with H3K27me3, AR, ENO2, N-Myc, CBX2 protein levels. Kind of experiment: Western blotting of protein expression in VCaP_NED cells.
From the text: as §2
In another androgen-sensitive prostate cancer cell line, VCaP, 6 days of androgen deprivation decreases AR protein expression and increases ENO2, N-Myc, H3K27me3 and CBX2 protein expression (FIG. 12G), similar to published findings (Y. Zhang, et al., 2018). Using this NED cell line (VCaP_NED), we tested how addition of EZH2 inhibitor GSK343 or CBX2 inhibitor SW2_152F affects protein expression changes during NED.
(Immunoblotting shows a protein as a band on a membrane.)

T2 sequence (O95931 whole entry): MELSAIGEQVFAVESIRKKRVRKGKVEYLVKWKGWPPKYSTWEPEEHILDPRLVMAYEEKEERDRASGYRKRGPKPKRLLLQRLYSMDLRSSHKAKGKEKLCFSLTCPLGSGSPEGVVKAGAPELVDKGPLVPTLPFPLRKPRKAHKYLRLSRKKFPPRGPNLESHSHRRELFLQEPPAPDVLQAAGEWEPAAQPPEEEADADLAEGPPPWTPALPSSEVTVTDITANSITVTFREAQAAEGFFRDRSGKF

For `C#CCNC(=O)[C@H](CO)NC(=O)[C@H](CCCCN(CC)CC)NC(=O)[C@@H](NC(=O)[C@@H](NC(=O)[C@H](Cc1ccc(O)c(Cl)c1)NC(=O)c1cc(Cl)cc(Cl)c1)C1CCCC1)[C@@H](C)CC` [SW2_152F] ({Benzoyl(3,5-Cl2)}-[Tyr(3-Cl)][Gly(cPent)]I[Lys(Et2)]S-{NH(propargyl)}), in experiment [1], the CBX2 expression entry is given as “remained unchanged”; the “expression of AR and AR-target genes (TMPRSS2 and KLK3)” value is recorded as “significantly increased”. The “CBX8 binding to chromatin, SSE” value in experiment [2] is recorded as “only a modest change”. Moreover, in experiment [3], the “CBX7 binding to chromatin, SSE” value was “No effect”. Moreover, in experiment [4], the “CBX2 binding at AR target genes, ChIP-qPCR” value is “abrogates CBX2 binding at the KLK3 (PSA)/TMPRSS2 enhancers and promoters”; the “H3K27me3 enrichment at AR target genes, ChIP-qPCR” value is “reduces H3K27me3 enrichment specifically at these sites”. The “cell size and dendrites of LNCaP_NED cells” value in the experiment with LNCaP_NED cells (10 μM, 24 h or 48 h) was “significantly decreased average cell size and reduced dendrites”. For the same compound, the LNCaP_NED cell proliferation entry in the experiment with LNCaP_NED cells (2 or 10 μM, 5 days) is “significantly inhibited LNCaP_NED cell proliferation”. Further, the “LNCaP_NED cell viability, combination with ENZA” value in the experiment with LNCaP_NED cells (both compounds, 4 days, compared to either alone) is listed as “significantly decreased”. Moreover, in experiment [5] (10 μM, 48 hours), the H3K27me3 levels entry is listed as “does not”. In addition, the “AR, ENO2 and N-Myc expression” value in experiment [5] (compared to DMSO) is “increase AR and decrease ENO2 and N-Myc expression”.
